Measured values taken from US6140354A, “N-substituted aminotetralins as ligands for the neuropeptide Y Y5 receptor useful in the treatment of obesity and other disorders” (Ortho-McNeil Pharmaceutical, Inc., priority 1999, dated 2000).

These compounds were tested against T1, human neuropeptide Y5 receptor (Homo sapiens, UniProt Q15761) (assay: NPY5 HTS Centrifugation Assay: competition with 125I-PYY for binding to NPY5-transfected HEK293 cell membranes). Details: 80 pM 125I-PYY, 1 hr room temperature, read-out: % Inh @ 3 uM (% Inhibition of ^125 I-PYY Binding).
T1 construct: expressed in transfected cells
T1 sequence (Q15761 1-445): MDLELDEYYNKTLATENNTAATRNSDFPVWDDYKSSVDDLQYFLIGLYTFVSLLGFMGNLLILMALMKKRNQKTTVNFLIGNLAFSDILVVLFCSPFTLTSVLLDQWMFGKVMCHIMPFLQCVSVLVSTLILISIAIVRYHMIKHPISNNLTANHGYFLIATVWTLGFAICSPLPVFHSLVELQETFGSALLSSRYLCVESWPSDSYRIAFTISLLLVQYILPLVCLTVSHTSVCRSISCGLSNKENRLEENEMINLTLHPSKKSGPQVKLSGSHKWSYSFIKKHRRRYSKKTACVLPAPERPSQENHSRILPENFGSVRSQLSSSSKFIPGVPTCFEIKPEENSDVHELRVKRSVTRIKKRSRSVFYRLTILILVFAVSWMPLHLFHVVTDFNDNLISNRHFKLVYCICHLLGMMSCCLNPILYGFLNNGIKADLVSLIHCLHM
Procedure: The compounds described in this invention were evaluated for binding to the human neuropeptide Y5 receptor.
The human NPY5 receptor cDNA (Genbank Accession number U66275) was inserted into the vector pClneo (Invitrogen) and transfected into human embryonic kidney cells (HEK-293) via Calcium phosphate method (Cullen 1987). Stably transfected cells were selected with G-418 (600 ug/mL). Stably transfected cells served as the source for the membranes for the NPY5 receptor binding assay.
NPY5-transfected HEK293 cells were grown to confluence in 150 cm^2 culture dishes. Cells were washed once with phosphate-buffered saline (Gibco Cat#14040-133). Cells were then incubated in phosphate-buffered saline without Calcium and without Magnesium, supplemented with 2 mM EDTA. Cells were incubated for 10 minutes at room temperature and the cells were collected by repetitive pipeting. Cells were formed into pellets and then frozen at -80 until needed. Frozen pellets were homogenized with a polytron at full speed for 12 seconds in a homogenization buffer (20 mM Tris HCl, 5 mM EDTA, pH 7.4). Homogenates were centrifuged for 5 minutes at 4C at 200 g. Supernatants were transferred to corex tubes and centrifuged for 25 minutes at 28,000 g. Pellets were re-suspended in Binding (20 mM HEPES, 10 mM NaCl, 0.22 mM KH2 PO4, 1.3 mM CaCl2, 0.8 mM MgSO4, pH 7.4). Membranes were kept on ice until use.
A competition binding assay, known to those skilled in the art, was used in which aminotetralins (I) compete with ^125 I-PYY for binding to cell membranes. In simple terms, the less ^125 I-PYY bound to the membranes implies that a compound is a good inhibitor (competitor). Bound ^125 I-PYY is determined by centrifugation of membranes, aspirating supernatant, washing away residual ^125 I-PYY and subsequently counting the bound sample in a g-counter.
Compounds to be tested were prepared as 10× stocks in binding buffer and added first to assay tubes (RIA vials, Sarstedt). Twenty (20) μL of each 10× compound stock is pipeted into vials and 80 μL of ^125 I-PYY (NEN catalog number NEX240), which has been diluted to a concentration of 200 pM in 0.25% BSA in binding buffer, is added to the compound tubes (final concentration of ^125 I-PYY is 80 pM). To each tube is added 100 μL of membranes and the mixture is agitated by pipeting 2 times. Samples are incubated for 1 hr at room temperature. Aluminum cast plates (Sarstedt) containing the vials are then centrifuged 10 minutes at 3200 rpm in a Sorvall RT6000. Supernatant is then aspirated. To each vial 400 μL PBS is added and this is then aspirated again. Vials are then put in carrier polypropylene 12×75 tube and counted in gamma counter (Packard). Non-specific binding is determined in the presence of 300 nM NPY. Percent inhibition of ^125 I-PYY binding is calculated by subtracting non-specific binding from the test samples (compound (I)), taking these counts and dividing by total binding, and multiplying by 100. Inhibitory concentration values (IC50) of compounds that show appreciable inhibition of ^125 I-PYY binding are calculated by obtaining percent inhibition of ^125 I-PYY binding values at different concentrations of the test compound, and using a graphing program such as GraphPad Prism (San Diego, Calif.) to calculate the concentration of test compound that inhibits fifty-percent of ^125 I-PYY binding (Table 4). These operations are known to those skilled in the art.
Compound COc1ccc2c(c1)CC[C@H](NCCCCCNS(=O)(=O)c1ccc3ccccc3c1)[C@@H]2Cc1ccccc1 (relative stereo) [Compound 11, rac-[1α,2α(trans)]-N-[[[[[1,2,3,4-tetrahydro-6-methoxy-1-(phenylmethyl)-2-naphthalenyl]amino]-5-pentyl]2-naphthalenesulfonamide] has an inhibition at 3 µM of 95%. Work on COc1ccc2c(c1)CC[C@H](NC[C@H]1CC[C@H](CNS(=O)(=O)c3ccccc3)CC1)[C@@H]2Cc1ccccc1 (relative stereo) [Compound 52] yielded an inhibition at 3 µM of 99%. Compound COc1ccc2c(c1)CC[C@H](NC[C@H]1CC[C@H](CNS(=O)(=O)c3cccs3)CC1)[C@@H]2Cc1ccccc1 (relative stereo) [Compound 59] has an inhibition at 3 µM of 102%. O=S(=O)(NC[C@H]1CC[C@H](CNC2CCc3cc(F)ccc3C2Cc2ccccc2)CC1)c1ccccc1Br (relative stereo) [Compound 74] showed an inhibition at 3 µM of 105%. Work on COc1ccc2c(c1)CC[C@H](NC[C@H]1CC[C@H](CNS(=O)(=O)c3ccccc3[N+](=O)[O-])CC1)[C@@H]2Cc1ccccc1 (relative stereo) [Compound 54] yielded an inhibition at 3 µM of 94%. Work on O=S(=O)(NC[C@H]1CC[C@H](CNC2CCc3c(Cl)cccc3C2Cc2ccccc2)CC1)c1ccccc1 (relative stereo) [Compound 105] yielded an inhibition at 3 µM of 98%. COc1ccc2c(c1)CCC(NC[C@H]1CC[C@H](CNS(=O)(=O)c3ccc(F)cc3)CC1)C2Cc1ccccc1 (relative stereo) [Compound 58] showed an inhibition at 3 µM of 91%. O=S(=O)(NC[C@H]1CC[C@H](CNC2CCc3cc(F)ccc3C2Cc2ccccc2)CC1)c1ccc(Cl)cc1Cl (stereo partly shown) [Compound 76] was tested, and the inhibition at 3 µM was 99%. COc1ccc2c(c1)CC[C@H](NCc1ccc(CNS(=O)(=O)c3ccc4ccccc4c3)cc1)[C@@H]2Cc1ccccc1 (relative stereo) [Compound 49] showed an inhibition at 3 µM of 60%. COc1ccc2c(c1)CCC(NC[C@H]1CC[C@H](CNS(=O)(=O)c3cc(Cl)cc(Cl)c3)CC1)C2Cc1ccccc1 (relative stereo) [Compound 56] was tested, and the inhibition at 3 µM was 73%. In the case of O=S(=O)(NC[C@H]1CC[C@H](CNC2CCc3cccc(Cl)c3C2Cc2ccccc2)CC1)c1ccccc1 (relative stereo) [Compound 106], the inhibition at 3 µM is reported as 104%. In the case of O=S(=O)(NC[C@H]1CC[C@H](CNC2CCc3cc(F)c(F)cc3C2Cc2ccccc2)CC1)c1ccccc1 (relative stereo) [Compound 107], the inhibition at 3 µM is reported as 103%. Compound COc1ccc2c(c1)CCC(NC[C@H]1CC[C@H](CNS(=O)(=O)c3ccc4ccccc4c3)CC1)C2Cc1cccc(C(F)(F)F)c1 (stereo partly shown) [Compound 94] has an inhibition at 3 µM of 45%. COc1ccc2c(c1)CCC(NC[C@H]1CC[C@H](CNS(=O)(=O)c3ccccc3)CC1)C2Cc1ccccc1Cl (relative stereo) [Compound 95] was tested, and the inhibition at 3 µM was 84%. COc1ccc2c(c1)CCC(NC[C@H]1CC[C@H](CNS(=O)(=O)c3ccccc3[N+](=O)[O-])CC1)C2Cc1c(F)cccc1F (relative stereo) [Compound 90] showed an inhibition at 3 µM of 97%. Compound COc1cc2c(cc1OC)C(Cc1ccccc1)C(NC[C@H]1CC[C@H](CNS(=O)(=O)c3ccccc3)CC1)CC2 (relative stereo) [Compound 108] has an inhibition at 3 µM of 99%. With COc1ccc2c(c1)CCC(NC[C@H]1CC[C@H](CNS(=O)(=O)c3ccccc3[N+](=O)[O-])CC1)C2Cc1ccccc1OC (stereo partly shown) [Compound 91] the inhibition at 3 µM was 92%. Work on O=S(=O)(NC[C@H]1CC[C@H](CNC2CCc3cc(F)ccc3C2Cc2ccccc2)CC1)c1ccccc1Cl (relative stereo) [Compound 73] yielded an inhibition at 3 µM of 107%. With COc1ccc2c(c1)CCC(NC[C@H]1CC[C@H](CNS(=O)(=O)c3cccc([N+](=O)[O-])c3)CC1)C2Cc1ccccc1 (stereo partly shown) [Compound 62] the inhibition at 3 µM was 95%. COc1ccc2c(c1)CCC(NC[C@H]1CC[C@H](CNS(=O)(=O)c3ccccc3)CC1)C2Cc1cccc(C(F)(F)F)c1 (stereo partly shown) [Compound 99] gave an inhibition at 3 µM of 99%. O=S(=O)(NC[C@H]1CC[C@H](CN[C@H]2CCc3cc(F)ccc3[C@H]2Cc2ccccc2)CC1)c1ccccc1F (relative stereo) [Compound 26, rac-[1α,2α(trans)]-N-[[[[[1,2,3,4-tetrahydro-6-fluoro-1-(3-phenylmethyl)-2-naphthalenyl]amino]methyl]-4-cyclohexyl]methyl]2-fluorobenzenesulfonamide] showed an inhibition at 3 µM of 107%. In the case of COc1ccc2c(c1)CC[C@H](NC[C@H]1CC[C@H](CNS(=O)(=O)c3ccc4ccccc4c3)CC1)[C@@H]2c1ccccc1 (relative stereo) [Compound 34, [1α,2α(trans)]-N-[[[[[1,2,3,4-tetrahydro-6-methoxy-1-phenyl-2-naphthalenyl]amino]methyl]-4-cyclohexyl]methyl]2-naphthlenesulfonamide], the inhibition at 3 µM is reported as 46%. COc1ccc2c(c1)CC[C@H](NCCCCCCCNS(=O)(=O)c1ccc3ccccc3c1)[C@@H]2Cc1ccccc1 (relative stereo) [Compound 47] gave an inhibition at 3 µM of 79%. For O=S(=O)(NC[C@H]1CC[C@H](CNC2CCc3cc(F)ccc3C2Cc2ccccc2)CC1)c1ccc(Cl)c(Cl)c1 (stereo partly shown) [Compound 78], the inhibition at 3 µM was 92%. COc1ccc2c(c1)CCC(NCCCCCCCCNS(=O)(=O)c1ccc3ccccc3c1)C2Cc1ccccc1 (stereo not shown) [Compound 48] gave an inhibition at 3 µM of 68%. COc1ccc2c(c1)C(Cc1ccccc1)C(NC[C@H]1CC[C@H](CNS(=O)(=O)c3ccccc3)CC1)CC2 (stereo partly shown) [Compound 79] gave an inhibition at 3 µM of 93%. With COc1ccc2c(c1)CCC(NC1CCC(NS(=O)(=O)c3ccc4ccccc4c3)CC1)C2Cc1ccccc1 (stereo not shown) [Compound 50] the inhibition at 3 µM was 44%. For O=[N+]([O-])c1ccccc1S(=O)(=O)NC[C@H]1CC[C@H](CNC2CCc3cc(Cl)ccc3C2Cc2ccccc2)CC1 (stereo partly shown) [Compound 64], the inhibition at 3 µM was 93%. With C=CC[C@@H]1c2ccc(OC)cc2CC[C@@H]1NC[C@H]1CC[C@H](CNS(=O)(=O)c2ccccc2)CC1 (relative stereo) [Compound 39, rac-[1α,2α(trans)]-N-[[[[[1,2,3,4-tetrahydro-6-methoxy-1-(1-propene-3-yl)-2-naphthalenyl]amino]methyl]4-cyclohexyl]methyl] benzenesulfonamide] the inhibition at 3 µM was 102%. Work on COc1ccc2c(c1)CCC(NC[C@H]1CC[C@H](CNS(=O)(=O)c3ccc4ccccc4c3)CC1)C2Cc1ccc2ccccc2c1 (relative stereo) [Compound 82] yielded an inhibition at 3 µM of 54%. COc1ccc2c(c1)CCC(NC[C@H]1CC[C@H](CNS(=O)(=O)c3ccccc3C(F)(F)F)CC1)C2Cc1ccccc1 (stereo partly shown) [Compound 65] showed an inhibition at 3 µM of 0%.
